According to PMC5075699:
“And” between values parts separate entries of the source, which are not always exact repeats. Equal values may be shown once.

Columns and labels:
nontransgenic mice [1] = assay: Pilot Morris water maze #1 (spatial learning and memory); conditions: for Distance / Latency: Fig 2A; for Crossing Frequency: individual mice, Fig 2C
[2] = ISRIB plasma levels in satellite mice (pharmacokinetic data); conditions: 2.5 hours post-administration, individual mouse
[3] = parameters: method as in Di Prisco et al., 2014; conditions: acute treatment; ref Di Prisco et al., 2014; cited from earlier work
hAPP-J20 (J20) mice = assay: Morris water maze #2, hAPP-J20 mice; conditions: for %Target Quadrant / Crossing Frequency / Latency to Target / Training Latency: ISRIB 2.5mpk in DMSO/PEG
rodents = system: rodents; parameters: method as in Sidrauski et al., 2013; conditions: delivered immediately after a stimulus or behavioral task; ref Sidrauski et al., 2013; cited from earlier work
[4] = system: prion disease mouse models; conditions: in vivo, ip, 0.25 mg/kg; cited from earlier work
nontransgenic mice [5] = assay: Contextual fear conditioning; conditions: ISRIB 2.5mpk, individual mice
[6] = ISRIB 0.1mpk, Trial 4, individual mice
[7] = ISRIB 0.25mpk, Trial 1, individual mice
[8] = ISRIB 0.25mpk, Trial 2, individual mice
[9] = ISRIB 0.25mpk, Trial 3, individual mice

With O=C(COc1ccc(Cl)cc1)NC1CCC(NC(=O)COc2ccc(Cl)cc2)CC1 (stereo not shown) [ISRIB] the Distance (nontransgenic mice [1]; [6]) was 1924.82 and 804.911 and 451.376 and 688.986 and 824.577 and 691.966 and 1226.74 and 1849.83 and 378.165 and 840.629, the Latency (nontransgenic mice [1]; [6]) was 96.0961 and 35.7357 and 20.6873 and 46.6467 and 38.0714 and 35.4354 and 120.153 and 97.4308 and 17.4174 and 44.2776 and the “Crossing Frequency” value (nontransgenic mice [1]; ISRIB 0.1mpk) was 1 and 2 and 5 and 0 and 4 and 3. The Distance (nontransgenic mice [1]; [7]) was 2065.19 and 2495.79 and 2100.99 and 2299.57 and 1083.65 and 2015.54 and 1762.54 and 1784.58 and 1973.36 and 2419.28 and 2296.21 and 1746.93 and 2593.71 and 2297.94 and 2156.55, the Latency (nontransgenic mice [1]; [7]) was 120.153 (10×) and 56.5566 and 93.994 and 110.677 and 97.7644 and 92.3257 and the Distance (nontransgenic mice [1]; [8]) was 2252.57 and 966.538 and 2215.71 and 2563.77 and 445.101 and 2147.24 and 1156.33 and 1018.37 and 2302.03 and 2270.34 and 1964.61 and 2179.88 and 2576.82 and 1685.38 and 1279.26. For the same compound, the Latency (nontransgenic mice [1]; [8]) was 119.753 and 49.4828 and 119.686 and 120.153 (6×) and 23.4902 and 55.5555 and 58.6587 and 114.581 and 80.8141 and 66.8669, the Distance (nontransgenic mice [1]; [9]) was 2747.59 and 190.327 and 1538.1 and 2351.74 and 241.5 and 531.856 and 1005.53 and 471.756 and 1003.73 and 604.685 and 1640.73 and 351.494 and 2299.54 and 202.419 and 1735.08 and the Latency (nontransgenic mice [1]; [9]) was 120.153 (5×) and 12.6126 and 98.365 and 13.9807 and 31.4314 and 77.5108 and 25.1251 and 47.047 and 26.9937 and 17.4174 and 12.5459. The “Crossing Frequency” value (nontransgenic mice [1]; ISRIB 0.25mpk) was 6 and 2 and 0 and 3 and 1 and 7, the “learning rates to find the hidden platform (latency or distance) vs vehicle” value (nontransgenic mice [1]; MWM #1 training, 0.1 and 0.25 mpk) was “No differences in learning rates” and the “Plasma concentration” value ([2]; Morris water maze #1 satellite mice, 0.25 mpk i.p. (1% DMSO/saline), 0.25 mg/kg) was 65.3 ng/mL and 71.9 ng/mL. The “Plasma concentration” value ([2]; Morris water maze #2 satellite mice, 0.25 mpk i.p. (1% DMSO/saline), 0.25 mg/kg) was 66.6 ng/mL and 65.6 ng/mL, the “Plasma concentration” value ([2]; Morris water maze #2 satellite mice, 2.5 mpk i.p. (DMSO/PEG), 2.5 mg/kg) was 657 ng/mL and 348 ng/mL and 286 ng/mL and the “effect on object-place learning” value [3] was “interfered with proper object-place learning”. The “learning during the training trials” value (hAPP-J20 (J20) mice; 0.25 or 2.5 mpk) was “did not observe an improvement in learning”, the “spatial memory treatment effects” value (hAPP-J20 (J20) mice; 72 hour probe trial, 0.25 or 2.5 mpk) was “did not observe significantly positive treatment effects” and the “%Target Quadrant” value (hAPP-J20 (J20) mice; Fig 4E, individual mice) was 31.3647% and 28.3617% and 19.6864% and 31.5871% and 22.6894% and 33.1443% and 19.1302% and 8.787% and 27.8056% and 30.5861% and 20.9098% and 21.7996%. The “Crossing Frequency” value (hAPP-J20 (J20) mice; Fig 4E, individual mice) was 3 and 2 and 0 and 1, the “Latency to Target” value (hAPP-J20 (J20) mice; Fig 4E, individual mice) was 3.136 and 38.1715 and 60 and 8.542 and 51.318 and 28.5619 and 11.0777 and the “Crossing Frequency” value (hAPP-J20 (J20) mice; Fig 4F, individual animals) was 3 and 1 and 0 and 4. The “Latency to Target” value (hAPP-J20 (J20) mice; Fig 4F, individual animals) was 7.941 and 17.6843 and 60 and 4.8048 and 4.538 and 12.7461 and 25.1585 and 9.076, the “%Target Quadrant” value (hAPP-J20 (J20) mice; Fig 4F, individual mice) was 32.9218% and 31.4759% and 23.2455% and 26.026% and 17.9068% and 37.2595% and 13.013% and 23.1343% and 9.676% and 36.9258% and 20.7986% and 27.6944% and the “Training Latency” value (hAPP-J20 (J20) mice; Trial 8, individual mice (Fig 4A-D)) was 120.187 (5×) and 47.5142 and 79.2125 and 54.9216 and 27.9613 and 39.306 and 87.0204 and 3.937. The “Training Latency” value (hAPP-J20 (J20) mice; Trial 9, individual mice (Fig 4A-D)) was 119.052 and 25.2252 and 42.5759 and 34.301 and 6.673 and 11.3447 and 10.8775 and 120.187 (2×) and 96.2296 and 50.5839 and 5.272, the “Training Latency” value (hAPP-J20 (J20) mice; Trial 10, individual mice (Fig 4A-D)) was 11.3447 and 82.5492 and 23.8906 and 120.187 (3×) and 29.1625 and 43.9106 and 12.3457 and 39.2392 and 38.9056 and 8.008 and the “Training Latency” value (hAPP-J20 (J20) mice; Trial 11, individual mice (Fig 4A-D)) was 26.293 and 117.251 and 19.4861 and 120.187 (5×) and 28.2282 and 11.4781 and 13.4134 and 31.1645. The “effect on spatial and fear memory” value (rodents) was “enhance spatial and fear memory”, the extension of survival [4] was “approximately 1 week” and the Post-Shock (nontransgenic mice [5]; Fig 3A) was 6.61 and 2.22 and 0 and 2.28 and 2.39 and 18.72 and 31.39 and 15.72 and 15.83 and 8.22 and 17.11 and 7.56 and 7 and 11.33 and 13.11 and 8.28 and 20.33 and 19.33 and 29.44 and 32.33 and 27.56. The Pre-Shock (nontransgenic mice [5]; Fig 3A) was 1.67 and 0 and 0.97 and 2.33 and 0.86 and 33.64 and 1.83 and 1.44 and 1.08, the “1st 4 min context” value (nontransgenic mice [5]; Fig 3B) was 11.1 and 4.75 and 30.01 and 15.49 and 4.44 and 18.51 and 26.85 and 38.13 and 45.92 and 9.61 and 2.13 and 12.76 and 6.75 and 15.99 and 18.96 and 31.54 and 27.17 and 21.38 and 27.25 and 14.79 and 16.25 and 41.57 and 18.94 and 33.54 and 25.69 and 47.14 and 19.89 and 27.42 and 56.35 and 28.89 and the “2nd 4 min context” value (nontransgenic mice [5]; Fig 3B) was 31.29 and 5.25 and 33.13 and 30.94 and 0 and 19.46 and 29.43 and 31.87 and 22.86 and 6.96 and 10.43 and 9.1 and 5.42 and 17.46 and 22.21 and 24.07 and 43.26 and 31.68 and 31.22 and 19.13 and 25.14 and 47.79 and 41.86 and 24.76 and 22.15 and 38.53 and 12.88 and 14.39 and 38.49 and 10.29. The 8 min context (nontransgenic mice [5]; Fig 3B) was 21.54 and 5 and 31.79 and 23.22 and 2.22 and 18.99 and 28.14 and 35.24 and 34.55 and 8.28 and 6.28 and 10.93 and 6.08 and 16.72 and 20.58 and 27.86 and 35.22 and 26.54 and 29.26 and 16.96 and 20.81 and 44.68 and 30.75 and 29.15 and 24.19 and 43.22 and 16.38 and 20.9 and 47.8 and 19.59.
